In brackets after ≈: the same amount, converted by molar mass. Where two headings read alike, the source gives them in different places. A value given as a limit tells only on which side of the number the result lay.

Consider 10 compounds from US20160297851A1, “BROAD SPECTRUM […]” (priority 2012, published 2016).

For experiment [1], the system named is lepB(P84L) P. aeruginosa PAO1. The experiment in a line: microbe, parasite or virus in culture. As to conditions: for MIC: Pseudomonas aeruginosa, PAO1, Sensitive (genetically sensitized) strain, read-out: MIC; for minimal inhibitory concentration (MIC): Table 3, P3 position derivatives, unit not given. Type of experiment: cell-based, Pseudomonas aeruginosa.
For experiment [2], the system named is lepB(P29S) S. aureus 8325. The experiment in a line: microbe, parasite or virus in culture. In kind it is cell-based, Staphylococcus aureus. As to conditions: for MIC: Sensitive (genetically sensitized) strain; for minimal inhibitory concentration (MIC): Table 3, P3 position derivatives, unit not given.
For experiment [3], the system named is Streptococcus pneumoniae R800. The experiment in a line: microbe, parasite or virus in culture. In kind it is cell-based. As to conditions: Streptococcus pneumoniae, R800; read-out: MIC.
Experiment [4] relates to Corynebacterium glutamicum DSM 44475. The experiment in a line: microbe, parasite or virus in culture. As to conditions: DSM44475. In kind it is cell-based.
Experiment [5] deals with Streptococcus pyogenes M1-5448. The experiment in a line: microbe, parasite or virus in culture. In kind it is cell-based. As to conditions: Streptococcus pyogenes, M15448; read-out: MIC.
Experiment [6] has as its system Corynebacterium efficiens DSM 44549. The experiment in a line: microbe, parasite or virus in culture. In kind it is cell-based. Conditions: Corynebacterium efficiens, DSM44549; read-out: MIC.
For experiment [7], the system named is Rhodococcus opacus DSM 1069. The experiment in a line: microbe, parasite or virus in culture. In kind it is cell-based. As to conditions: Rhodococcus opacus, DSM1069; read-out: MIC.
The test system of experiment [8] is Rhodococcus equi ATCC 6939. The experiment in a line: microbe, parasite or virus in culture. In kind it is cell-based. As to conditions: Rhodococcus (subgen. Prescottella) equi, ATCC6939.
The test system of experiment [9] is lepB(P84L) E. coli MG1655. The experiment in a line: microbe, parasite or virus in culture. Type of experiment: cell-based, Escherichia coli. Conditions: for MIC: Escherichia coli, MG1655, Sensitive (genetically sensitized) strain, read-out: MIC; for minimal inhibitory concentration (MIC): Table 3, P3 position derivatives, unit not given.
For another experiment, the system named is wild type E. coli MG1655. The experiment in a line: microbe, parasite or virus in culture. In kind it is cell-based, Escherichia coli.
Experiment [10] has as its system Streptococcus agalactiae COH-1. The experiment in a line: microbe, parasite or virus in culture. In kind it is cell-based.
The subject of experiment [11] is wild type S. epidermidis RP62A. The experiment in a line: microbe, parasite or virus in culture. As to conditions: for MIC: Sensitive strain (SPase without the resistance-conferring Pro); for minimal inhibitory concentration (MIC): Table 3, P3 position derivatives, unit not given. In kind it is cell-based, Staphylococcus epidermidis.
In another experiment the test system is Lactococcus lactis. The experiment in a line: microbe, parasite or virus in culture. Type of experiment: cell-based. Conditions: Lactococcus lactis, several values = different isolates/subspecies; read-out: MIC.
Experiment [12] relates to Brevibacillus brevis ATCC 8246. The experiment in a line: microbe, parasite or virus in culture. In kind it is cell-based. Conditions: ATCC8246.
In another experiment the test system is wild type S. aureus 8325. The experiment in a line: microbe, parasite or virus in culture. Type of experiment: cell-based, Staphylococcus aureus.
The subject of experiment [13] is Gram-negative strains (E. coli, P. aeruginosa). The experiment in a line: MIC panel. Type of experiment: cell-based. As to conditions: for activity in words: wild type or mutant Gram-negative strains.
Experiment [14] deals with wild type P. aeruginosa PAO1. The experiment in a line: microbe, parasite or virus in culture. In kind it is cell-based, Pseudomonas aeruginosa.
For experiment [15], the system named is spsB(S29P) S. epidermidis RP62A. The experiment in a line: microbe, parasite or virus in culture. Type of experiment: cell-based, Staphylococcus epidermidis.
The test system of experiment [16] is S. epidermidis, S. aureus, E. coli, and P. aeruginosa. The experiment in a line: MIC panel. In kind it is cell-based. Conditions: all bacteria / organisms tested.
In experiment [17] the test system is Gram-positive bacteria (S. epidermidis, S. aureus). The experiment in a line: MIC panel. In kind it is cell-based.
Experiment [18] relates to S. epidermidis ATCC 35984. The experiment in a line: MIC of selected compounds. As to conditions: Table 1. In kind it is cell-based.
Experiment [19] has as its system E. coli PAS0232 (SPase P84S). In kind it is cell-based, Escherichia coli.
For experiment [20], the system named is P. aeruginosa PAS2006 (SPase P84S). In kind it is cell-based, Pseudomonas aeruginosa.
In experiment [21] the test system is S. epidermidis PAS9002 (SPase S31P). In kind it is cell-based, Staphylococcus epidermidis.
Where [22] appears, read: Staphylococcus aureus, read-out: MIC.
Where [23] appears, read: Escherichia coli, MG1655, Resistant strain (wild type), read-out: MIC.
[24] abbreviates: Staphylococcus epidermidis, read-out: MIC.
The mark [25] stands for this setting: Staphylococcus aureus, Resistant strain (wild type), read-out: MIC.
Where [26] appears, read: Pseudomonas aeruginosa, PAO1, Resistant strain (wild type), read-out: MIC.

Take `CCCCCCCCCCCCCCCC(=O)N(C)[C@H](CO)C(=O)N[C@H](C)C(=O)NCC(=O)N(C)[C@@H]1C(=O)N[C@@H](C)C(=O)N[C@H](C(=O)O)Cc2cc(c(O)c([N+](=O)[O-])c2)-c2cc1ccc2O` [Arylomycin B-C16, arylomycin B-C16]: the activity in words entry in experiment [1] was “has activity”; in experiment [2], “has activity”; in experiment [9], “has activity”; with wild type E. coli MG1655, “no activity”; in experiment [11], “potent activity”. The MIC in [1] is 4 µg/mL; in experiment [2] (setting [22]), 8 µg/mL; in [3] it was 16 µg/mL (≈ 17.3 µM); in experiment [4], 2 µg/mL (≈ 2.16 µM); in experiment [5], 4 µg/mL (≈ 4.32 µM); in experiment [6], 16 µg/mL (≈ 17.3 µM). The MIC in experiment [7] was 4 µg/mL (≈ 4.32 µM); in experiment [8] it was 32 µg/mL (≈ 34.6 µM); in experiment [9], 2 µg/mL; in the experiment on wild type E. coli MG1655 (setting [23]) it was over 64 µg/mL; in [10] (Streptococcus agalactiae, COH1) it was 8 µg/mL (≈ 8.64 µM); in experiment [11] (setting [24]), 0.13 µg/mL (≈ 0.14 µM). Further, the MIC was 32 µg/mL (≈ 34.6 µM) in the experiment on Lactococcus lactis and over 64 µg/mL in experiment [12]. Besides, the “fold more activity than arylomycin C16” value in experiment [10] is on record as “greater than 16 fold”.

Turning to `CCCCCCCCCCCCCCCC(=O)N(C)[C@H](CO)C(=O)N(C)[C@H](C)C(=O)NCC(=O)N(C)[C@@H]1C(=O)N[C@@H](C)C(=O)N[C@H](C(=O)O)Cc2ccc(O)c(c2)-c2cc1ccc2O` [Compound 18], the MIC (in the experiment on wild type S. aureus 8325 (setting [25]); in experiment [1]; in experiment [2] (setting [22]); in [9]; with wild type E. coli MG1655 (setting [23]); in experiment [14] (setting [26])) was over 64 µg/mL each time. Moreover, the MIC in experiment [15] (setting [24]) and in [11] (setting [24]) was over 64 µg/mL throughout. Further, the activity in words result in experiment [13] is reported as “complete loss of activity”; in experiment [15], “retained full activity”.

As for `CCCCCCCCCCCCCCCC(=O)N(C)[C@H](CO)CC(=O)N[C@H](C)C(=O)NCC(=O)N(C)[C@@H]1C(=O)N[C@@H](C)C(=O)N[C@H](C(=O)O)Cc2ccc(O)c(c2)-c2cc1ccc2O` [Compound 23], the activity in words result in the experiment on wild type S. aureus 8325 is “gain activity”. In addition, the MIC with wild type S. aureus 8325 (setting [25]) is 64 µg/mL; in [1] it was over 64 µg/mL; in [2] (setting [22]) it was 16 µg/mL; in [9], over 64 µg/mL; with wild type E. coli MG1655 (setting [23]) it was over 64 µg/mL; in experiment [14] (setting [26]), over 64 µg/mL. Besides, the MIC is 8 µg/mL (≈ 8.94 µM) in [15] (setting [24]) and 4 µg/mL (≈ 4.47 µM) in experiment [11] (setting [24]).

On to `CCCCCCCCCCCCCCCC(=O)N(C)[C@H](CO)CCC(=O)N[C@H](C)C(=O)NCC(=O)N(C)[C@@H]1C(=O)N[C@@H](C)C(=O)N[C@H](C(=O)O)Cc2ccc(O)c(c2)-c2cc1ccc2O` [Compound 24], for which the MIC in the experiment with wild type S. aureus 8325 (setting [25]) was 16 µg/mL; in [1] it was over 64 µg/mL; in experiment [2] (setting [22]), 4 µg/mL; in experiment [9], over 64 µg/mL; in the experiment with wild type E. coli MG1655 (setting [23]), over 64 µg/mL; in [14] (setting [26]) it was over 64 µg/mL. The MIC came out at 16 µg/mL (≈ 17.6 µM) in experiment [15] (setting [24]) and 8 µg/mL (≈ 8.8 µM) in experiment [11] (setting [24]).

In the case of `CCCCCCCCCCCCCCCC(=O)N(C)[C@H](CO)C(=O)N[C@H](C)C(=O)NCC(=O)N(C)[C@@H]1C(=O)N[C@@H](C)C(=O)N[C@H](C(=O)O)Cc2ccc(O)c(c2)-c2cc1ccc2O` [Compound 25], the MIC in experiment [2] (setting [22]) came out at 64 µg/mL; in experiment [11] (setting [24]), 32 µg/mL (≈ 36.3 µM). In [13], the activity in words entry is listed as “no activity”.

Turning to `CCCCCCCCCCCCCCCC(=O)N(C)[C@H](CO)C(=O)N[C@H](C)C(=O)NCC(=O)N(C)[C@@H]1C(=O)N[C@@H](CCCO)C(=O)N[C@H](C(=O)O)Cc2ccc(O)c(c2)-c2cc1ccc2O` [Compound 31], the “minimal inhibitory concentration (MIC)” value in experiment [1], in experiment [2], in experiment [9] and in experiment [11] was over 64 each time. Also, in experiment [16], the activity in words result is given as “All activity was lost”.

With `CCCCCCCCCCCCCCCC(=O)N(C)[C@H](CO)C(=O)N[C@H](C)C(=O)NCC(=O)N(C)[C@@H]1C(=O)N[C@@H](CCCCO)C(=O)N[C@H](C(=O)O)Cc2ccc(O)c(c2)-c2cc1ccc2O` [Compound 32], the “minimal inhibitory concentration (MIC)” value in experiment [1], in [2], in experiment [9] and in experiment [11] was over 64 throughout. Also, the activity in words entry in experiment [16] is “All activity was lost”.

With `CCCCCCCCCCCCCCCC(=O)N(C)[C@H](CO)C(=O)N[C@H](C)C(=O)NCC(=O)N(C)[C@@H]1C(=O)N[C@@H](C)C(=O)N[C@H](C(=O)O)Cc2cc(N)c(O)c(c2)-c2cc1ccc2O` [Compound 36], the “fold loss of activity relative to the parent compounds” value was determined as 32 fold in experiment [17] and 8 fold in [13] (Gram-negative pathogens). Also, the values for the MIC (in the experiment with wild type E. coli MG1655 (setting [23]); in experiment [11] (setting [24]); in experiment [12]) were over 64 µg/mL, 8 µg/mL (≈ 8.93 µM) and over 64 µg/mL, respectively.

On to arylomycin A2 [reference compound], for which the MIC against wild type S. aureus 8325 (Table 1, S. aureus 8325) is over 128 µM; in the experiment on wild type E. coli MG1655 (Table 1, E. coli MG1655) it was over 128 µM; in [18] it was 1 µM.

Consider arylomycin C16, for which the MIC against wild type S. aureus 8325 (Resistant strain (wild type)) was over 128 µg/mL; in experiment [2], 2 µg/mL; in experiment [19] it was 2 µg/mL; in [20] it was 8 µg/mL; against wild type E. coli MG1655 (Resistant strain (wild type)), over 128 µg/mL; in experiment [14] (Resistant strain (wild type)), over 128 µg/mL. The values for the MIC in [15], in [11] and in experiment [21] were 8 µg/mL, 0.25 µg/mL and over 128 µg/mL, respectively.
